From patent publication US20040248765A1, “Tumour targeting prodrugs activated by metallo matrixproteinases” (priority 2001, published 2004)
pIC50: −log10 of the molar value. Where two headings read alike, the source gives them in different places. Where a SMILES comes first, the peptide text is derived from it. [ ]: non-standard residue; d: D form. The star is where a group is joined. NH(CH2)3NH(1-anthraquinonyl) = O=C1c2ccccc2C(=O)c2c(NCCCN*)cccc21

How the values were obtained:
topo I = molecular target: T1, topo I (Homo sapiens, UniProt P11387); experiment: Inhibition of topo I-mediated relaxation of pBR322 DNA; assay type: biochemical; conditions: for LEVEL OF INHIBITION of topo I-mediated relaxation pBR322 DNA: tested between 1-100 μM
T1 sequence (P11387 1-765): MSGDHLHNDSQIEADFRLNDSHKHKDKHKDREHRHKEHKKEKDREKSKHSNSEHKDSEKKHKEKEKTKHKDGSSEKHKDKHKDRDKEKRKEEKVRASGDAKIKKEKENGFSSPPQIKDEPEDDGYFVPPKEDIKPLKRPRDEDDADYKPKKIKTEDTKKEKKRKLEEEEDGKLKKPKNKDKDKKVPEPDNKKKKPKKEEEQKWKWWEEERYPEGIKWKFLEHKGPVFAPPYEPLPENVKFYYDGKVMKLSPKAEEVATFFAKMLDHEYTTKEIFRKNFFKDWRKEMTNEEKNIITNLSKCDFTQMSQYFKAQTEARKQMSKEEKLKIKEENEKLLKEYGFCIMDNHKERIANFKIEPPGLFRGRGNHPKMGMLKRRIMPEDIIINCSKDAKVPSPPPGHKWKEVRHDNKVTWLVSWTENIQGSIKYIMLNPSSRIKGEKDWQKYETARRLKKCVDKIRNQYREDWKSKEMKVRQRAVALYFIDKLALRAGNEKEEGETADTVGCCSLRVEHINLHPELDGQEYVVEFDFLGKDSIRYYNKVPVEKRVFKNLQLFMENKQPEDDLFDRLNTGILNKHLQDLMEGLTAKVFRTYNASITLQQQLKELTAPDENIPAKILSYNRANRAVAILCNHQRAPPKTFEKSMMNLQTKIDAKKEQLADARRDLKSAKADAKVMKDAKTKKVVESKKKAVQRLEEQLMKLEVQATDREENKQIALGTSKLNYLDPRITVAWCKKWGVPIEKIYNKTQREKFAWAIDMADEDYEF
Description: Neither example (8) [NU:UB187] (heptapeptide) nor its hexa-, penta-, or tetra-peptide metabolites {examples (7) [NU:UB 205], (6) [NU:UB 204] and (5) [NU:UB 186] respectively} inhibited the topo I- mediated relaxation of pBR322 DNA at concentrations up to 100 μM. […] (the preferred MMP-2 cleavage product of example (8) [NU:UB187] The topo I activities of example (2) [NU:UB 31] and example (1b) [NU:UB 197] bad previously been determined [Table 1].

MAC15A = experiment: In vitro cytotoxicity, MAC15A, 1 hour exposure; assay type: cell-based; conditions: for % cells remaining: 1 × 10^4 cells/ml
[1] = system: MAC15A adenocarcinoma of the colon; experiment: In vitro cytotoxicity against MAC15A adenocarcinoma of the colon, 96 hours exposure; assay type: cell-based
calf thymus DNA [2] = experiment: Fluorescence quenching, Ethidium Bromide displacement from calf thymus DNA; assay type: binding; conditions: calf thymus DNA
calf thymus DNA [3] = experiment: Fluorescence quenching, Hoechst Dye 33258 displacement from calf thymus DNA; assay type: binding; conditions: calf thymus DNA
[4] = Stability in murine whole blood and mouse plasma; assay type: in vitro ADME
[5] = In vitro tumour incubations: metabolism by dilute HT1080 tumour homogenate (HPLC); assay type: in vitro ADME; conditions: dilute HT1080 tumour homogenate (1:500)
Description: Separation was achieved using gradient reversed phase HPLC On a Lichrospher (25×4 mm) column.
Mobile phase A consisted of 10% acetonitrile: 90% TFA (0.05%) and mobile phase B of 60% acetonitrile: 40% TFA (0.05%). Optimum detection was at the λmax of 248 nm using a flow rate of 1.2 ml/min. The gradient profile was from 60% A to 5% A over 25 min.
Sample preparation for HPLC was by simple protein precipitation. 3 vols. of methanol were added to 1 vol. of sample (typically 100 μl) which was centrifuged at 3000 g for 5 min. The supernatant was injected directly onto the HPLC column.
In Vitro Tumour Incubations
Solid tumour (HTT1080—excised from NCI-Nu mice under a Home Office Licence) was homogenised (1:4) in MMP buffer. Tumour homogenates were incubated at 25° C. and compounds (drugs) were added to the homogenate to give a final concentration of 10 μM or 100 μM. Samples were taken at timed intervals and prepared for HPLC analysis as described above.
Where metabolism was so rapid tumour homogenates required dilution (to 1:500) before analysis.

[6] = Mus musculus, exposure time 96 hours, read-out: IC50

Row | SMILES | LEVEL OF INHIBITION of topo I-mediated relaxation pBR322 DNA (topo I) | % cells remaining (MAC15A; 1 μM) | % cells remaining (MAC15A; 10 μM) | % cells remaining (MAC15A; 100 μM) | melting point | other results
1 | NCCCNc1cccc2c1C(=O)c1ccccc1C2=O.O=C(O)C(F)(F)F [Example 1b, 1-[(3-Aminopropyl)amino]anthraquinone trifluoroacetate] | Complete inhibition of relaxation at 25 μM | 90% | 100% | 5% | – | pIC50 (MAC15A; Mus musculus): 4.48
2 | O=C(O)C(F)(F)F.O=C1c2ccccc2C(=O)c2c(NCCCNC(=O)[C@@H]3CCCN3)cccc21 [Example 2, 1-[3-(L-Propylamino)propylamino]anthraquinone trifluoroacetate] | Complete inhibition of relaxation at 25 μM | 100% | 30% | 0% | – | pIC50 (MAC15A): 5.30; pIC50 ([1]; exposure time 96 hours, read-out: IC50): 5.37; QE50 (Ethidium Bromide displacement) (calf thymus DNA [2]): 2 µM; QH50 (Hoechst Dye 33258 displacement) (calf thymus DNA [3]): 0.6 µM
3 | CC(C)C[C@H](N)C(=O)N1CCC[C@H]1C(=O)NCCCNc1cccc2c1C(=O)c1ccccc1C2=O.O=C(O)C(F)(F)F [Example 3, 1-[3-(L-Leucyl-L-prolylamino)propylamino]anthraquinone trifluoroacetate] | Complete inhibition of relaxation at 5 μM | 80% | 58% | 1% | 126 °C | pIC50 (MAC15A; Mus musculus): 4.85; pIC50 ([1]; Mus musculus, 96 h): 5.70
4 | CC(C)C[C@H](NC(=O)CN)C(=O)N1CCC[C@H]1C(=O)NCCCNc1cccc2c1C(=O)c1ccccc1C2=O.O=C(O)C(F)(F)F [Example 4, 1-[3-(Glycyl-L-leucyl-L-prolylamino)propylamino]anthraquinone trifluoroacetate] | Partial inhibition of relaxation at 50 μM | 91% | 55% | 0% | 144 to 148 °C | pIC50 (MAC15A; Mus musculus): 4.89
5 | CC(C)C[C@H](NC(=O)CNC(=O)[C@@H](N)CC(C)C)C(=O)N1CCC[C@H]1C(=O)NCCCNc1cccc2c1C(=O)c1ccccc1C2=O.O=C(O)C(F)(F)F [Example 5, 1-[3-(L-Leucyl-glycyl-L-leucyl-L-prolylamino)propylamino]-anthraquinone trifluoroacetate] (H-LGLP-{NH(CH2)3NH(1-anthraquinonyl)}) | No inhibition of relaxation between 1-100 μM | 89% | 100% | 0% | 144 °C | pIC50 (MAC15A; Mus musculus): 4.52
6 | CC(C)C[C@H](NC(=O)[C@H](C)N)C(=O)NCC(=O)N[C@@H](CC(C)C)C(=O)N1CCC[C@H]1C(=O)NCCCNc1cccc2c1C(=O)c1ccccc1C2=O.O=C(O)C(F)(F)F [Example 6, 1-[3-(L-Alanyl-L-leucyl-glycyl-L-leucyl-L-prolylamino)propylamino]-anthraquinone trifluoroacetate] | No inhibition of relaxation between 1-100 μM | – | – | – | 168 °C | –
7 | CC(C)C[C@H](NC(=O)[C@H](C)NC(=O)[C@H](C)N)C(=O)NCC(=O)N[C@@H](CC(C)C)C(=O)N1CCC[C@H]1C(=O)NCCCNc1cccc2c1C(=O)c1ccccc1C2=O.O=C(O)C(F)(F)F [Example 7, 1-[3-(L-Alanyl-L-alanyl-L-leucyl-glycyl-L-leucyl-L-prolylamino)-propylamino]anthraquinone trifluoroacetate] | No inhibition of relaxation between 1-100 μM | – | – | – | 132 °C | –
8 | NCC(=O)N[C@@H](Cc1ccccc1)C(=O)N1CCC[C@H]1C(=O)NCCCNc1cccc2c1C(=O)c1ccccc1C2=O.O=C(O)C(F)(F)F [Example 73, 1-[3-(Glycyl-L-phenylalanyl-L-prolylamino)propylamino]anthraquinone trifluoroacetate] | – | – | – | – | 129 °C | pIC50 ([1]; Mus musculus, 96 h): 5.60
9 | CC[C@H](C)[C@H](N)C(=O)NCC(=O)N[C@@H](Cc1ccccc1)C(=O)N1CCC[C@H]1C(=O)NCCCNc1cccc2c1C(=O)c1ccccc1C2=O.O=C(O)C(F)(F)F [Example 74, 1-[3-(L-Isoleucyl-glycyl-L-phenylalanyl-L-prolylamino)propylamino]-anthraquinone trifluoroacetate] | – | – | – | – | 122 to 124 °C | pIC50 [1, 6]: 5.60
10 | CC[C@H](C)[C@H](NC(=O)[C@@H](N)Cc1ccccc1)C(=O)NCC(=O)N[C@@H](Cc1ccccc1)C(=O)N1CCC[C@H]1C(=O)NCCCNc1cccc2c1C(=O)c1ccccc1C2=O.O=C(O)C(F)(F)F [Example 75, 1-[3-(L-Phenylalanyl-L-isoleucyl-glycyl-L-phenylalanyl-L-prolylamino)-propylamino]anthraquinone trifluoroacetate] | – | – | – | – | 132 to 136 °C | pIC50 [1, 6]: 4.70
11 | CC[C@H](C)[C@H](NC(=O)[C@H](Cc1ccccc1)NC(=O)[C@@H](N)CC(C)C)C(=O)NCC(=O)N[C@@H](Cc1ccccc1)C(=O)N1CCC[C@H]1C(=O)NCCCNc1cccc2c1C(=O)c1ccccc1C2=O.O=C(O)C(F)(F)F [Example 76, 1-[3-(L-Leucyl-L-phenylalanyl-L-isoleucyl-glycyl-L-phenylalanyl-L-prolylamino)propylamino]anthraquinone trifluoroacetate] | – | – | – | – | 166 to 178 °C | pIC50 [1, 6]: 4.68
12 | CC[C@H](C)[C@H](NC(=O)[C@H](Cc1ccccc1)NC(=O)[C@H](CC(C)C)NC(=O)[C@@H](C)N)C(=O)NCC(=O)N[C@@H](Cc1ccccc1)C(=O)N1CCC[C@H]1C(=O)NCCCNc1cccc2c1C(=O)c1ccccc1C2=O.O=C(O)C(F)(F)F [Example 77, 1-[3-(D-Alanyl-L-Leucyl-L-Phenylalanyl-L-isoleucyl-glycyl-L-phenylalanyl-L-prolylamino)propylamino]anthraquinone trifluoroacetate] | – | – | – | – | 142 to 148 °C | pIC50 [1, 6]: 4.62
13 | CC(C)C[C@H](N)C(=O)N1CCC[C@H]1C(=O)NCCCNc1cccc2c1C(=O)c1ccccc1C2=O.O=C(O)C(F)(F)F [example (3)] | – | – | – | – | – | inhibition of topo I-mediated relaxation, in words (topo I): Greatest inhibitory activity
14 | CC(C)C[C@H](NC(=O)CN)C(=O)N1CCC[C@H]1C(=O)NCCCNc1cccc2c1C(=O)c1ccccc1C2=O.O=C(O)C(F)(F)F [example (4)] | – | – | – | – | – | inhibition of topo I-mediated relaxation, in words (topo I): weakly inhibited relaxation at 50 μM
15 | CC(C)C[C@H](NC(=O)[C@H](C)NC(=O)[C@H](C)NC(=O)[C@@H](C)N)C(=O)NCC(=O)N[C@@H](CC(C)C)C(=O)N1CCC[C@H]1C(=O)NCCCNc1cccc2c1C(=O)c1ccccc1C2=O.O=C(O)C(F)(F)F [example (8)] (H-[dA]AALGLP-{NH(CH2)3NH(1-anthraquinonyl)}) | – | – | – | – | – | t½ ([4]; mouse plasma at 37° C.): > 13 h; half-life ([4]; murine whole blood): 1.46 h
16 | CC(C)C[C@H](NC(=O)[C@H](C)NC(=O)[C@H](C)NC(=O)[C@@H](C)N)C(=O)NCC(=O)N[C@@H](CC(C)C)C(=O)N1CCC[C@@H]1C(=O)NCCCNc1cccc2c1C(=O)c1ccccc1C2=O.O=C(O)C(F)(F)F [example (15)] (H-[dA]AALGL[dP]-{NH(CH2)3NH(1-anthraquinonyl)}) | – | – | – | – | – | major products / metabolite [5]: the expected cleavage product example (11) [NU:UB 224]; rate of metabolism [5]: 2.5 μmol/min/g tissue
